Assay results as given in US7638624B2, “Compositions and methods relating to novel benzodiazepine compounds and derivatives” (The Regents of the University of Michigan, priority 2005, dated 2009).

Tests used:
[1] = test system: Ramos cells; test: Detection of cell death in Ramos cells, viability by propidium iodide staining; assay type: cell-based; settings: 24 hours, 2% FBS, PI 1 μg/mL, FIG. 1
Protocol: (§1) Ramos cells were exposed to the following compounds:
Cell viability was assessed by staining with propidium iodide (PI, 1 μg/mL).

[2] = test system: Ramos cells; test: Ramos cells exposed to compounds, O2- detected with dihydroethidium (DHE); assay type: cell-based; settings: 1 hour, 2% FBS, FIG. 2
Protocol: as §1
To detect O2^−, cells were incubated with dihydroethidium (DHE).

[3] = biological target: F1F0-ATPase; settings: F1F0-ATPase inhibition; cited from earlier work

Compound | cellular death (cell viability by propidium iodide staining) [1] | cellular death (O2- detection with dihydroethidium) [2] | IC50 [3] [nM]
CC1CN(c2ccc(O)cc2)c2cc(Cl)ccc2N(Cc2ccc3ccccc3c2)C1=O (stereo not drawn) [GD-423] | causes cell death | causes cell death | 
CC[C@H]1/C=C/C=C/C[C@@H](C)[C@H](O)[C@@](C)(O)C(=O)[C@@H](C)[C@H](O)[C@@H](C)C(=O)[C@@H](C)[C@H](O)[C@@H](C)/C=C/C(=O)O[C@@H]2[C@H](C)[C@H](CC1)O[C@]1(CC[C@H](C)[C@H](C[C@@H](C)O)O1)[C@H]2C [oligomycin] |  |  | 10
